Source: the NIST ThermoML archive (doi:10.1021/je500271z)
± gives the expanded uncertainty stated by the source.

Experiment: osmotic coefficient (dimensionless); mn = molality of the nth substance listed, in mol/kg
Conditions: 298.15 K, Liquid, vapor pressure osmometry

Question: Which osmotic coefficient (m1 = 0.2485) does the source give for `[Cl-].[Na+]` [sodium chloride] + O here?
Answer: 0.95 ± 0.02

Question: And the osmotic coefficient (m1 = 0.5058)?
Answer: 0.922 ± 0.02

Question: What about the osmotic coefficient (m1 = 1.993) of the same compound?
Answer: 0.976 ± 0.02
